Test results taken from US20250263436A1, “BROAD-SPECTRUM ANTIVIRAL DRUG FOR ENTEROVIRUS, AND APPLICATION” (WUHAN INSTITUTE OF VIROLOGY, CHINESE ACADEMY OF SCIENCES, priority 2020, published 2025).
Where “and” joins values, the source holds several entries; their conditions need not be identical. Identical values can stand only once.

Legend:
[1] = Toxicity assay in RD cells (CCK-8); type: cell-based; conditions: human, RD cells, 24 h
Procedure: (§1) (1) Different cells were plated in a 96-well plate at 100 μL per well.
(§2) (2) When the cells grew to a confluence of 70%-80%, the DMEM medium containing 10% serum was replaced with a DMEM medium containing 2% serum, and a certain concentration gradient of polypeptide RQ was added, so that the final concentrations of the polypeptide in the wells were 0.073242 μM, 0.146484 μM, 0.292969 μM, 0.585938 μM, 1.171875 μM, 2.34375 μM, 4.6875 μM, 9.375 μM, 18.75 μM, 37.5 μM, 75 μM, 150 μM, and 300 μM, respectively.
(§3) (3) The samples were collected 24 h after the addition of the polypeptide, and then 10 μL of live cell detection reagent CCK-8 was added to each well and mixed well.
(§4) (4) The plate was placed at 37° C. for 2 h.
(§5) (5) The absorbance value at OD450 was detected by a microplate reader.
(§6) (1) RD cells were plated in a 96-well plate at 100 μL per well.
(§7) (2) When the cells grew to a confluence of 70%-80%, the DMEM medium containing 10% serum was replaced with a DMEM medium containing 2% serum, and B-RQ was added so that the final concentrations in the wells were 0.46 μM, 2.34 μM, 4.68 μM, 9.37 μM, 18.75 μM, 37.5 μM, 75 μM, and 150 μM.

RD cells = assay: Toxicity assay in RD cells (CCK-8); type: cell-based; conditions: 24 h
Procedure: as §1, §2, §3, §4, §5, §6, §7

## CC[C@H](C)[C@H](NC(=O)[C@H](C)NC(=O)[C@H](CO)NC(=O)[C@H](CCCNC(=N)N)NC(=O)[C@H](CC(N)=O)NC(=O)[C@H](CC(N)=O)NC(=O)[C@H](Cc1ccc(O)cc1)NC(=O)[C@H](CCC(=O)O)NC(=O)[C@H](CCCNC(=N)N)NC(=O)CNC(=O)[C@H](CO)NC(=O)CNC(=O)[C@H](CCCNC(=N)N)NC(=O)[C@H](CCCNC(=N)N)NC(=O)[C@H](CCCNC(=N)N)NC(=O)[C@H](CCC(N)=O)NC(=O)[C@H](CCCNC(=N)N)NC(=O)[C@H](CCCNC(=N)N)NC(=O)[C@H](CCCCN)NC(=O)[C@H](CCCCN)NC(=O)[C@H](CCCNC(=N)N)NC(=O)CNC(=O)[C@@H](N)Cc1ccc(O)cc1)C(=O)NCC(=O)N[C@@H](CC(N)=O)C(=O)N[C@H](C(=O)N[C@H](C(=O)N[C@@H](CCC(=O)O)C(=O)N[C@@H](C)C(=O)N[C@@H](CC(C)C)C(=O)N[C@@H](Cc1ccccc1)C(=O)N[C@@H](CCC(N)=O)C(=O)O)[C@@H](C)CC)[C@@H](C)O [RQ]
[1]; RQ 0.073242 μM, read-out: Viability of RD cell (%)
  viability at 24 h, 0.073242 µM: 99.8%
[1]; RQ 0.146484 μM, read-out: Viability of RD cell (%)
  viability at 24 h, 0.146484 µM: 99.2%
[1]; RQ 0.292969 μM, read-out: Viability of RD cell (%)
  viability at 24 h, 0.292969 µM: 101%
[1]; RQ 0.585938 μM, read-out: Viability of RD cell (%)
  viability at 24 h, 0.585938 µM: 98.9%
[1]; RQ 1.171875 μM, read-out: Viability of RD cell (%)
  viability at 24 h, 1.17188 µM: 99.6%
[1]; RQ 2.34375 μM, read-out: Viability of RD cell (%)
  viability at 24 h, 2.34375 µM: 98.8%
[1]; RQ 4.6875 μM, read-out: Viability of RD cell (%)
  viability at 24 h, 4.6875 µM: 98.3%
[1]; RQ 9.375 μM, read-out: Viability of RD cell (%)
  viability at 24 h, 9.375 µM: 98.4%
[1]; RQ 18.75 μM, read-out: Viability of RD cell (%)
  viability at 24 h, 18.75 µM: 101%
[1]; RQ 37.5 μM, read-out: Viability of RD cell (%)
  viability at 24 h, 37.5 µM: 101%
[1]; RQ 75 μM, read-out: Viability of RD cell (%)
  viability at 24 h, 75 µM: 102%
[1]; RQ 150 μM, read-out: Viability of RD cell (%)
  viability at 24 h, 150 µM: 8.73%
[1]; CCK-8
  CC50 at 24 h: > 150 µM
RD cells; RQ 0.073242 μM
  Viability of RD cell (%): 100.3321% and 99.8893%
RD cells; RQ 0.146484 μM
  Viability of RD cell (%): 102.3247% and 99.94%
RD cells; RQ 0.292969 μM
  Viability of RD cell (%): 100.2214% and 99.17%
RD cells; RQ 0.585938 μM
  Viability of RD cell (%): 103.5978% and 102.7122%
RD cells; RQ 1.171875 μM
  Viability of RD cell (%): 99% and 99.23%
RD cells; RQ 2.34375 μM
  Viability of RD cell (%): 98.51%
RD cells; RQ 4.6875 μM
  Viability of RD cell (%): 99.45% and 100.8856%
RD cells; RQ 9.375 μM
  Viability of RD cell (%): 100.7196% and 102.6568%
RD cells; RQ 18.75 μM
  Viability of RD cell (%): 103.4317% and 102.4354%
RD cells; RQ 37.5 μM
  Viability of RD cell (%): 103.9852% and 103.5424%
RD cells; RQ 75 μM
  Viability of RD cell (%): 103.5978% and 102.9889%
RD cells; RQ 150 μM
  Viability of RD cell (%): 8.782% and 8.007%
